# Measured values taken from patent US11649207B2, “Formulations of T-type calcium channel modulators and methods of use thereof” (PRAXIS PRECISION MEDICINES, INC., priority 2019, dated 2023).
# Test system: essential tremor
# Experiment: Clinical study in essential tremor (TETRAS, accelerometer)
# Format: in vivo, human
# Settings: essential tremor patient, emerging data
# Procedure: A clinical study was conducted to investigate the efficacy, safety, and tolerability of the compound of formula (I) in essential tremor. A patient who has been diagnosed with essential tremor completed 3 study periods: Screening, Treatment period (14 days), and Safety follow-up. The patient received a stable dose of 1 tremor medication throughout the clinical trial. The patient received 20 mg of the compound of formula (I) (one tablet of formulation 5) orally once a day for 7 days and 40 mg of the compound of formula (I) (two tablets of 20 mg formulation 5) orally once a day for 7 days (total of 14 days consecutively). Efficacy of the compound of formula (I) on upper limb tremor was assessed by The Essential Tremor Rating Assessment Scale (TETRAS) upper limb score at Baseline, on Day 7, and on Day 14. Efficacy of the compound of formula (I) on other measures of tremor severity was assessed by TETRAS performance subscale score, TETRAS performance individual items, and accelerometer at Baseline, on Day 7, and on Day 14.
structure (smiles),measurement,value
CC(C)(C)NC(=O)CN1CCC(CNC(=O)c2cc(F)cc(Cl)c2)CC1 [compound of formula (I)],tolerability,well tolerated
